Test results from US20200121627A1, “COMPOSITION COMPRISING AZELAIC ACID OR AS ACTIVE INGREDIENTS FOR MUSCLE STRENGTHENING, DEVELOPMENT, DIFFERENTIATION, REGENERATION OR INHIBITING MUSCLE ATROPHY” (priority 2018, published 2020).

What was measured:
[1] = test system: nicotinamide adenine dinucleotide phosphate (NADP) oxidase; settings: cited from earlier work
[2] = test system: Mouse myoblast cell line (C2C12 cells); assay: Myotube length in dexamethasone-treated mouse myoblasts (muscle loss-inhibitory efficacy), Wright-Giemsa staining; assay type: cell-based; settings: 100 μM azelaic acid combined with 50 μM dexamethasone for two days from the 4th day of differentiation
Protocol: (§1) Mouse myoblast cell line (C2C12 cells) was purchased from ATCC (Manassas, Va., USA) and used. The purchased cell line was incubated in an incubator at 37° C., 5% CO2 using 10% fetal bovine serum medium (Gibco-BRL) and used for experiments. […] In order to identify muscle-potentiating efficacy, treatment with 100 μM azelaic acid (CAS Number 123-99-9, Sigma) was performed for two days from the day when differentiation began, and a control was treated with 100 μM dimethyl sulfoxide (DMSO; Sigma). […] Sigma) and 100 μM azelaic acid (CAS Number 123-99-9, Sigma) was performed for two days from the 4th day of differentiation. The cells were washed twice with phosphate buffered saline (PBS), and then fixed for 10 minutes with 100% methanol. […] Co., Ltd., Seoul, South Korea) that specifically stains myotubes. Stained myotubes were photographed at ×40 magnification using a fluorescence microscope (IX 71, Olympus) and analyzed using Image J software (USA). Six sections of each well were randomly selected and micrographed. Lengths of at least 100 myotubes from each well were analyzed (3 repetitions/group).

[3] = test system: various strains of skin microorganisms; settings: 0.5 mol/l (8.4% w/v) azelaic acid solution, 24 hours, all bacterial strains; cited from earlier work
p-4E-BP1 = assay: Western blotting in mouse myoblasts; assay type: cell-based; settings: azelaic acid treatment of dexamethasone-treated cells, vs Dexa
Protocol: (§2) Mouse myoblast cell line (C2C12 cells) was purchased from ATCC (Manassas, Va., USA) and used. The purchased cell line was incubated in an incubator at 37° C., 5% CO2 using 10% fetal bovine serum medium (Gibco-BRL) and used for experiments. When the cell line reached a confluency of about 80%, the cells were differentiated into myotubes using 2% horse serum medium (Gibco-BRL). In order to identify muscle-potentiating efficacy, treatment with 100 μM azelaic acid (CAS Number 123-99-9, Sigma) was performed for two days from the day when differentiation began, and a control was treated with 100 μM dimethyl sulfoxide (DMSO; Sigma). […]
(§3) In order to perform Western blotting in cells, to each well from which the medium was removed was added a lysis buffer that contains 500 μL of 100 mM Tris-HCl, pH 7.4, 5 mM EDTA, 50 mM sodium pyrophosphate, 50 mM NaF, 100 mM orthovanadate, 1% Triton X-100, 1 mM phenylmethanesulfonyl fluoride, 2 μg/mL aprotinin, 1 μg/mL pepstatin A, and 1 μg/mL leupeptin, and the cells were lysed to obtain a lysate. […] Then, the middle layer was taken and proteins were quantified according to the Bradford method (Bio-Rad). 40 μg of the quantified proteins were electrophoresed on SDS polyacrylamide gel and then transferred to nitrocellulose membranes (Amersham, Buckinghamshire, UK).

p-p70S6K1 = assay: Western blotting in mouse myoblasts; assay type: cell-based; settings: azelaic acid treatment of dexamethasone-treated cells, vs Dexa
Protocol: as §2, §3

[4] = test system: Mouse myoblast cell line (C2C12 cells); assay: Myotube length in differentiating mouse myoblasts (muscle-potentiating efficacy), Wright-Giemsa staining; assay type: cell-based; settings: 100 μM azelaic acid for two days from the day differentiation began, vs DMSO control
Protocol: as §1

rats = settings: oral administration; cited from earlier work
[5] = test system: interleukin-1β, interleukin-6, and TNF-α; settings: human epidermal cells treated with 20 mM azelaic acid; cited from earlier work
[6] = ethanol and water; cited from earlier work
IGF1 = assay: Real-time PCR mRNA expression in mouse myoblasts; assay type: cell-based; settings: azelaic acid treatment of dexamethasone-treated cells, vs Dexa
Protocol: (§4) Mouse myoblast cell line (C2C12 cells) was purchased from ATCC (Manassas, Va., USA) and used. The purchased cell line was incubated in an incubator at 37° C., 5% CO2 using 10% fetal bovine serum medium (Gibco-BRL) and used for experiments. When the cell line reached a confluency of about 80%, the cells were differentiated into myotubes using 2% horse serum medium (Gibco-BRL). In order to identify muscle-potentiating efficacy, treatment with 100 μM azelaic acid (CAS Number 123-99-9, Sigma) was performed for two days from the day when differentiation began, and a control was treated with 100 μM dimethyl sulfoxide (DMSO; Sigma). In order to identify muscle loss-inhibitory efficacy, combined treatment with 50 μM dexamethasone (dexa; Sigma) and 100 μM azelaic acid (CAS Number 123-99-9, Sigma) was performed for two days from the 4th day of differentiation.
(§5) 334 μl of Trizol solution was added per 1×10^7 cells of mouse myoblasts, and grinding was performed. Then, the resultant was centrifuged at 4° C. and 12,000×g for 10 minutes. The supernatant was transferred to a new tube. Then, 67 μl of chloroform was added thereto and vortexing was performed. Again, the supernatant was transferred to a new tube, and isopropanol was added so that a ratio of the supernatant to isopropanol was 1:1. After performing vigorous shaking 10 times, the tube was allowed to stand at room temperature for 15 minutes, and centrifuged at 12,000×g and 4° C. for 10 minutes.

myostatin = assay: Real-time PCR mRNA expression in mouse myoblasts; assay type: cell-based; settings: azelaic acid treatment of dexamethasone-treated cells, vs Dexa
Protocol: as §4, §5

MAFbx/Atrogin1 = assay: Real-time PCR mRNA expression in mouse myoblasts; assay type: cell-based; settings: azelaic acid treatment of dexamethasone-treated cells, vs Dexa
Protocol: as §4, §5

MuRF1 = assay: Real-time PCR mRNA expression in mouse myoblasts; assay type: cell-based; settings: azelaic acid treatment of dexamethasone-treated cells, vs Dexa
Protocol: as §4, §5

O=C(O)CCCCCCCC(=O)O [azelaic acid, nonanedioic acid]
reaction of NADP oxidase (antioxidant effect) [1]: inhibiting | increase in the myotube length which has decreased due to dexamethasone [2]: 62% | decreased viability of bacterial strains [3]: at least 40 fold | amount of p-4E-BP1 protein (p-4E-BP1): significantly increased | amount of p-p70S6K1 protein (p-p70S6K1): significantly increased | increase in myotube length [4]: 62% | LD50 (rats): 15,800 mg/kg | mRNA expression and protein secretion of interleukin-1β, interleukin-6, and TNF-α by UVB [5]: inhibition | solubility [6]: soluble | expression of IGF1 gene (IGF1): significantly increased | expression of myostatin gene (myostatin): significantly decreased | expression of MAFbx/Atrogin1 gene (MAFbx/Atrogin1): significantly decreased | expression of MuRF1 gene (MuRF1): significantly decreased
